Each structure is given as a SMILES string. Like-named read-outs stand apart in the source and are kept apart here.

In test [1] the target is T1, Cyclin Dependent Kinase 1/Cyclin A2 (CDK1-cycA2) (Homo sapiens, UniProt P06493).
T1 construct: purchased ProQinase 0134-0054-1
As to the kind of experiment: CDK1-cycA2 TR-FRET (Lance) enzyme assay. The class given is biochemical. Particulars: for Ki: enzymatic assay; for FS CDK1/CDK2: fold selectivity, enzymatic Ki ratio. An outline of the steps: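 TR-FRET (Lance) detection of phospho-4E-BP1 with a europium-labelled antibody after EDTA quench (15 mM final); signal taken as acceptor/donor ratio. Enzyme and compound were pre-incubated 30 min in HEPES pH 7.5 buffer with MgCl2, TCEP, BGG and Brij 35. Ki derived by Morrison fit.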

The target of test [2] is T2, Cyclin Dependent Kinase 2/Cyclin E1 (CDK2-cycE1) (Homo sapiens, UniProt P24941).
T2 construct: purchased ProQinase 0050-0055-1
The test is described as follows: CDK2-cycE1 TR-FRET (LANCE) enzyme assay.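 As to improvement in potency against CDK2 (Ki) over Comparator C: fold lower CDK2 Ki than comparator c (Ki 0.032 µM).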 Particulars: for FS CDK1/CDK2 / FS CDK4/CDK2: fold selectivity. The class given is biochemical. An outline of the steps: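 Kinase reaction buffer: 50 mM HEPES pH 7.5, 10 mM MgCl2, 2 mM TCEP, 0.05% BGG, 0.01% Brij 35, with 30 min compound–enzyme pre-incubation.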
In general terms: Time-resolved FRET reads energy transfer from a long-lived donor to a nearby acceptor.

In test [3] the target is T3, Cyclin Dependent Kinase 4/Cyclin D3 (CDK4-cycD3) (Homo sapiens, UniProt P11802).
T3 construct: purchased Carna Biosciences 04-105
T3 sequence (P11802 whole entry): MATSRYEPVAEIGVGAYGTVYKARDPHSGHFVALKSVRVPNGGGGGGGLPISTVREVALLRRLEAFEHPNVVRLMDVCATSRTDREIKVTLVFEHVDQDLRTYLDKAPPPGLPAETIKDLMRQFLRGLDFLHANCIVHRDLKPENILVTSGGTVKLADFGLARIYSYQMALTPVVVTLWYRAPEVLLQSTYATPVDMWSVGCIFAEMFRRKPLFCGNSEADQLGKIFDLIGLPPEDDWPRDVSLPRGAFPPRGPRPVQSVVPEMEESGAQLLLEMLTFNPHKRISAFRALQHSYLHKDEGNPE
T3 sequence (P30281 whole entry partner): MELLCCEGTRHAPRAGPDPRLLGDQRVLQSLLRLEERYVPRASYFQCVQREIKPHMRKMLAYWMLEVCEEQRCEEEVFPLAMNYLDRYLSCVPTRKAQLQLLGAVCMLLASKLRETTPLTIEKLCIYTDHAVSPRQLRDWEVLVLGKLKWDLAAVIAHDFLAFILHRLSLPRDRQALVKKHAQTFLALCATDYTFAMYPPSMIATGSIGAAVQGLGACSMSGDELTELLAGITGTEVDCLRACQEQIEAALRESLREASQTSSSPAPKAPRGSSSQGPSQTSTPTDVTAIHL
The test is described as follows: CDK4-cycD3 TR-FRET (LANCE) enzyme assay. The test is classed as biochemical. Particulars: for Ki: enzymatic assay; for FS CDK4/CDK2: fold selectivity, enzymatic Ki ratio. An outline of the steps:
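Compound dose responses pre-incubated 30 min with enzyme mix in 50 mM HEPES pH 7.5, 10 mM MgCl2, 2 mM TCEP, 0.05% BGG, 0.01% Brij 35. Reaction quenched with EDTA (15 mM final); Eu-anti-phospho-4E-BP1 TR-FRET detection, acceptor/donor ratio. Ki derived by Morrison equation.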

The subject of test [4] is OVISE (JCRB1043, CCNE1-amplified). The test is described as follows: OVISE EdU incorporation cell proliferation assay (CDK2-dependent). The class given is cell-based. The following applies: for IC50: cellular assay, read-out: CDK2 OVISE IC50; for FS SKOV-3/OVISE / FS p-H3/OVISE: fold selectivity; for FS p-H3/OVISE: cellular p-H3 IC50 over OVISE IC50. An outline of the steps: (§1)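 EdU incorporation (0.5 μM final, last 8 h) follows a 16 h compound exposure at 37 °C, 5% CO2 in RPMI plus 10% FBS, 0.5% DMSO. After fixation, imaging scores EdU-positive cells; a 4-parameter logistic fit of that fraction gives IC50.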

Test [5] relates to SKOV-3 (ATCC HTB-77). The test is described as follows: SKOV-3 EdU incorporation cell proliferation assay (CDK4/6-dependent). The following applies: for IC50: Homo sapiens, cellular assay, read-out: CDK4/6 SKOV-3 IC50; for FS SKOV-3/OVISE: fold selectivity. The test is classed as cell-based. An outline of the steps: as §1
Test [6] concerns HCT116 cells. As to the kind of experiment: p-H3 HCT-116 mitotic release cell proliferation assay (cellular CDK1). The test is classed as cell-based. Particulars: for IC50: Homo sapiens, HCT-116, cellular assay, read-out: CDK1 p-H3 IC50. How it is done:
Inhibition of cellular CDK1 determined by release of cells from nocodazole-induced mitotic arrest, as measured by decrease in phospho-Histone H3. Histone H3 (Ser 10) level is detected in cell lysates by producing a Fluorescence Resonance Energy Transfer (FRET) signal between two antibodies, Phospho-Histone H3 Cryptate (acting as the donor) and Phospho-Histone H3 d2 (acting as the acceptor).
Plates are allowed to rest overnight at 37° C./5% CO2. The following morning, nocodazole is diluted in complete medium, and 5 μL is added to each test well and positive control well for a final concentration of 500 nM. Plates are then incubated for 16 hours at 37° C./5% CO2. […] 10 μL of diluted compound is then transferred to the cell plate (final DMSO concentration 0.1%). Cell plates are then incubated for 4 hours in 37° C. 5% CO2. A cell lysis buffer is prepared on ice using reagents from the Phospho-Histone H3 (Ser10) cellular kit (Cisbio-64HH3PEG). Supernatant is discarded from the cell plate and 80 μL of the supplemented cell lysis buffer (1:99 dilution of the Blocking Reagent and the 1× cell lysis buffer provided in the kit) is added to each of the experimental wells. The cell lysis reaction is allowed to proceed at room temperature while shaking vigorously for 30 minutes. The 384-well HTRF (Homogeneous Time Resolved Fluorescence) plate is prepared by adding 2 μL of each diluted antibody (Phospho-Histone H3 Cryptate antibody and Phospho-Histone H3 d2 antibody diluted 19:1 in a detection buffer) and 12 μL of the supplemented cell lysis buffer to each well in the HTRF plate. 4 μL of the cell lysate is added to the prepared HTRF plate which is then sealed and the reaction is allowed to proceed for a minimum of 2 hours at room temperature.

[7] abbreviates: read-out: CDK2 activity / potency (enzymatic assay).
[8] abbreviates: Table O, enzymatic assay, read-out: CDK2 Ki.
The mark [9] stands for this setting: Table O, enzymatic CDK1 Ki over CDK2 Ki.
[10] abbreviates: Table O, enzymatic CDK4 Ki over CDK2 Ki.
Setting [11] is: Table O, cellular SKOV-3 IC50 over OVISE IC50.

T1 sequence (P06493 whole entry): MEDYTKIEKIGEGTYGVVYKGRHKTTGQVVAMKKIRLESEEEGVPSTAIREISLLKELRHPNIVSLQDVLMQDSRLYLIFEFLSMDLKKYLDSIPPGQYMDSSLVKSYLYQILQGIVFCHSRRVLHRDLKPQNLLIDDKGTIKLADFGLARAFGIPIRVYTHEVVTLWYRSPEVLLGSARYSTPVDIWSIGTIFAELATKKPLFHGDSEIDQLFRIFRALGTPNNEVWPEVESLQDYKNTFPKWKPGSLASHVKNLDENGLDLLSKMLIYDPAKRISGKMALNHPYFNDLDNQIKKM
T1 sequence (P20248 whole entry partner): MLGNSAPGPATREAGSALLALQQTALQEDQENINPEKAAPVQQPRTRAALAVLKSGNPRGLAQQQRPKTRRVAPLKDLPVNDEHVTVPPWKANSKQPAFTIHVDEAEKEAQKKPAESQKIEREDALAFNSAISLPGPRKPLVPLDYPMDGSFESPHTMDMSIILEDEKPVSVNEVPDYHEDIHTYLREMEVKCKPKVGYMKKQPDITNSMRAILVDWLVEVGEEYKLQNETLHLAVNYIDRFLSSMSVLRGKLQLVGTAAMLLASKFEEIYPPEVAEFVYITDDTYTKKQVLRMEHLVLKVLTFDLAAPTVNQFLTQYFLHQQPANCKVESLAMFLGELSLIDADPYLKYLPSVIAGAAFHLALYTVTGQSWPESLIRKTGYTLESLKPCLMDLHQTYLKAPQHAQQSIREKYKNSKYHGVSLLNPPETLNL

For `CC(C)(C)NC(=O)O[C@@H]1CC[C@H](c2cc(NC(=O)c3ccnnc3)n[nH]2)C1` [Comparator B, reference compound], the Ki is 0.032 µM in test [1] (Table P), 0.001 µM in test [2] (setting [7]) and 0.25 µM in test [3] (Table P). Moreover, in test [1] (Table P), the “FS CDK1/CDK2” value stood at 32. Besides, in test [3] (Table P), the “FS CDK4/CDK2” value is given as 250. The IC50 in test [4] (Table P) was 0.14 µM; in test [5] (SK-OV-3, Table P) it was 6.7 µM; in test [6] (Table P), 0.043 µM. Moreover, the “FS SKOV-3/OVISE” value in test [5] (cellular IC50 ratio (CDK4/6 over CDK2), Table P) came to 48. In test [6], the “pH3/OVISE fold selectivity (CDK1 over CDK2, cellular assay data)” value came to 0.31 fold. Further, the “FS p-H3/OVISE” value in test [6] (fold selectivity, cellular IC50 ratio (CDK1 over CDK2), Table P) was 0.31.
For the compound `Cn1cc(Nc2cc([C@H]3CC[C@@H](OC(=O)NC(C)(C)C)C3)[nH]n2)ccc1=O` [Example 1, (1R,3S)-3-(3-((1-methyl-6-oxo-1,6-dihydropyridin-3-yl)amino)-1H-pyrazol-5-yl)cyclopentyl tert-butylcarbamate], the Ki in test [1] (Table O) stood at 0.27 µM; in test [2] (setting [8]), 0.0076 µM; in test [2] (Table R, enzymatic assay, read-out: CDK2 Ki) it was 0.0076 µM; in test [2] (Table S, enzymatic assay, read-out: CDK2 Ki) it was 0.0076 µM; in test [3] (Table O) it was 0.7 µM. Besides, the “FS CDK1/CDK2 increased over Comparator D, (+) sign” value in test [1] (Table R) is “(+)”. Besides, the “FS CDK1/CDK2” value in test [1] (Table R), in test [1] (Table S) and in test [2] (setting [9]) was 36 throughout. Further, the “FS CDK4/CDK2” value in test [2] (setting [10]), in test [3] (Table R) and in test [3] (Table S) was 92 throughout. For the same compound, the “CDK2 Ki fold change in potency versus Comparator D” value in test [2] (Table R, in brackets after CDK2 Ki) is 0.4 fold. The “CDK2 Ki fold change in potency versus Comparator E” value in test [2] (Table S, in brackets after CDK2 Ki) worked out at 0.1 fold. Moreover, in test [3] (Table R), the “FS CDK4/CDK2 increased over Comparator D, (+) sign” value was “(+)”. Also, the “FS CDK4/CDK2 increased over Comparator E, (+) sign” value in test [3] (Table S) is listed as “(+)”. Further, the IC50 was 0.22 µM in test [4] (Table O); above 20 µM in test [5] (SK-OV-3, Table O); above 20 µM in test [5] (SK-OV-3, Table R); above 20 µM in test [5] (SK-OV-3, Table S); 0.1 µM in test [6] (Table O). Besides, the “FS SKOV-3/OVISE” value is recorded as above 91 in test [4] (setting [11]); above 91 in test [5] (Table R, cellular IC50 ratio); above 91 in test [5] (Table S, cellular IC50 ratio). In addition, the “FS p-H3/OVISE” value in test [4] (Table O) was 0.45. For the same compound, the “CDK2 OVISE IC50 fold change in potency versus Comparator D” value in test [4] (Table R, in brackets after OVISE IC50) turned out to be 17 fold. In addition, the “CDK2 OVISE IC50 fold change in potency versus Comparator E” value in test [4] (Table S, in brackets after OVISE IC50) is recorded as 0.8 fold. In test [5] (SKOV-3/OVISE fold-selectivity cellular assay data), the “selectivity for CDK2 over CDK4 compared with Comparator E” value is “increase in selectivity for CDK2 over CDK4”. Further, in test [5] (Table R), the “FS SKOV-3/OVISE increased over Comparator D, (+) sign” value is listed as “(+)”. Further, the “FS SKOV-3/OVISE increased over Comparator E, (+) sign” value in test [5] (Table S) is recorded as “(+)”.
Turning to `CC(C)NC(=O)O[C@@H]1CC[C@H](c2cc(Nc3ccc(=O)n(C)n3)n[nH]2)C1` [Example 2, (1R,3S)-3-(3-((1-methyl-6-oxo-1,6-dihydropyridazin-3-yl)amino)-1H-pyrazol-5-yl)cyclopentyl isopropylcarbamate], the Ki in test [1] (Table O) is 0.016 µM; in test [2] (setting [8]), 0.00044 µM; in test [2] (Table Q, enzymatic assay, read-out: CDK2 Ki) it was 0.00044 µM; in test [2] (setting [7]) it was at most 0.001 µM; in test [3] (Table O) it was 0.24 µM. Also, the “FS CDK1/CDK2” value in test [2] (setting [9]) worked out at 36; in test [2] (Table Q, enzymatic) it was 36. Moreover, the “FS CDK4/CDK2” value in test [2] (setting [10]) worked out at 550; in test [2] (Table Q, enzymatic), 550. Also, the “increased fold-selectivity CDK4/CDK2 over Comparator C” value in test [2] (Table Q, (+) sign after FS CDK4/CDK2) is reported as “(+) (The (+) sign in Table Q signifies desirable increased fold-selectivity of the exemplary compounds over Comparator C)”. Besides, the “improvement in potency against CDK2 (Ki) over Comparator C” value in test [2] (Table Q, in brackets after CDK2 Ki, Comparator C 0.032 μM) was 73 fold. Further, the IC50 in test [4] (Table O) was 0.093 µM; in test [5] (SK-OV-3, Table O) it was 11 µM; in test [5] (SK-OV-3, Table Q), 11 µM; in test [6] (Table O) it was 0.19 µM. In addition, the “FS SKOV-3/OVISE” value was found to be 120 in test [4] (setting [11]) and 120 in test [4] (Table Q, cellular). The “FS p-H3/OVISE” value in test [4] (Table O) was 1.9. The “increased fold-selectivity SKOV-3/OVISE over Comparator C” value in test [4] (Table Q, (+) sign after FS SKOV-3/OVISE) is “(+) (The (+) sign in Table Q signifies desirable increased fold-selectivity of the exemplary compounds over Comparator C)”. Further, the “improvement in CDK2 OVISE cell potency over Comparator C” value in test [4] (Table Q, in brackets after OVISE IC50, Comparator C 5.5 μM) was 59 fold.
